Like-named read-outs stand apart in the source and are kept apart here.

One data set relates to DLBCL cells. As to the kind of experiment: Autophagy, LC3B II puncta. The format is cell-based, human. Particulars: 100 nM, 24H, P<0.0001.
Data set [1] concerns OCI-LY3 and DB DLBCL cells. As to the kind of experiment: ROS production, CM-H2DCFDA staining. The format is cell-based, human.
The subject of another data set is DOHH-2. Put plainly: Cell viability assay (CellTiter-Glo, ATP quantification). Type of data set: cell-based, human. Particulars: DOHH-2 (GCB), 96H. From the text: (§1) The 16 DLBCL cell lines (U2932, OCI-LY-3, NU-DHL-1, OCI-LY-19, DB, SUDHL4, OCILY1, SUDHL5, DOHH2, SUDHL10, HT, RI-1, SU-DHL-6, NUDUL-1, WSU-DLCL-2 and OCI-LY-7) were purchased from the DSMZ (Leibniz-Institut DSMZ—Deutsche Sammlung von Mikroorganismen und Zellkulturen GmbH, Germany). They were maintained in RPMI-1640 (Gibco, Invitrogen), supplemented with 10% fetal bovine serum (PAA laboratory GmbH) for U2932, SUDHL-4, HT, DOHH2, SUDHL-10, RI-1, WSU-DLCL-2 cell lines, 20% FBS OCI-LY3, DB, SUDHL-5, NUDHL-1, SU-DHL-6, NUDUL-1 cell lines. OCI-LY1 and OCI-LY7 were cultured in IMDM (Gibco, Invitrogen), supplemented with 20% fetal bovine serum and OCI-LY19 was cultured in MEM alpha modified (Gibco, Invitrogen), supplemented with 20% fetal bovine serum. Cultures were maintained at 37° C. in a humidified atmosphere with 5% CO2.
(§2) DLBCL-derived cell lines were cultured for 4 days in 96-well flat-bottom microtiter plates in RPMI 1640 medium, 10% or 20% FCS (control medium) in the presence of various compounds. The number of viable cells in culture was determined using the CellTiter-Glo Luminescent Cell Viability Assay from Promega, Madison, Wis., USA using a Centro LB 960 luminometer (Berthold Technologies, Bad Wildbad, Germany).
(§3) This test is based on quantitation of the intracellular ATP present, which signals the presence of metabolically active cells. Data are expressed as the mean percentage of six replicates, normalized to the untreated control.
(§4) We extending the analyses to a large panel of 16 DLBCL cell lines. The panel of 16 DLBCL cell lines were incubated with increasing concentrations of Ironomycin or vehicle for 96H. Table 7 hereunder presents the inhibitory concentration 50% (IC50) of Ironomycin for the 16 DLBCL cell-lines.
For orientation: In ATP-based viability assays light output follows the ATP content of the culture.

The subject of another data set is SU-DHL-4. Described as above. Type of data set: cell-based, human. The following applies: SU-DHL-4 (GCB), 96H.
Description: as §1, §2, §3, §4

A further data set relates to WSU-DLCL-2. The description is as above. The format is cell-based, human. Particulars: WSU-DLCL-2 (GCB), 96H.
Description: as §1, §2, §3, §4

Another data set has as its system SU-DHL-6. Described as above. The format is cell-based, human. Particulars: SU-DHL-6 (GCB), 96H.
Description: as §1, §2, §3, §4

The subject of another data set is OCI-LY7. Described as above. Type of data set: cell-based, human. The following applies: OCI-LY7 (GCB), 96H.
Description: as §1, §2, §3, §4

The next data set relates to NU-DUL-1. The description is as above. Type of data set: cell-based, human. The following applies: NU-DUL-1 (ABC), 96H.
Description: as §1, §2, §3, §4

A further data set has as its system OCI-LY1. The data set is described as above. The format is cell-based, human. Particulars: OCI-LY1 (GCB), 96H.
Description: as §1, §2, §3, §4

A further data set concerns OCI-LY19. The data set is described as above. The format is cell-based, human. Particulars: OCI-LY19 (GCB), 96H.
Description: as §1, §2, §3, §4

The subject of the next data set is RI-1. The description is as above. The format is cell-based, human. Particulars: RI-1 (ABC), 96H.
Description: as §1, §2, §3, §4

The next data set deals with SU-DHL-10. Described as above. Type of data set: cell-based, human. The following applies: SU-DHL-10 (GCB), 96H.
Description: as §1, §2, §3, §4

The subject of a further data set is NU-DHL-1. The description is as above. The format is cell-based, human. The following applies: NU-DHL-1 (GCB), 96H.
Description: as §1, §2, §3, §4

Data set [2] concerns DLBCL-derived cell lines (U2932, DB and OCI-LY3). As to the kind of experiment: Concentration matrix test, synergy matrix (Bliss equation). The format is cell-based, human. Particulars: DB cell line, 96 h, combined with Doxorubicin. Here is the method: The DB DLBCL-derived cell lines were treated with increasing concentrations of Ironomycin combined with Doxorubicin for 96 h and cell viability was tested by ATP quantification to obtain the viability matrix. The synergy matrix was calculated as described in Material and Methods (A).
Three DLBCL-derived cell lines were treated with increasing concentrations of Ironomycin combined with Venetoclax for 96 h and cell viability was tested by ATP quantification to obtain the viability matrix. The synergy matrix was calculated as described in Material and Methods. FIG. 8A: U2932 cell line; FIG. 8B: DB cell line; FIG. 8C: OCI-LY3 cell line.
Two DLBCL-derived cell lines were treated with increasing concentrations of Ironomycin combined with Ibrutinib for 96 h and cell viability was tested by ATP quantification to obtain the viability matrix. The synergy matrix was calculated as described in Material and Methods. […]
Two DLBCL-derived cell lines were treated with increasing concentrations of Ironomycin combined with Venetoclax for 96 h and cell viability was tested by ATP quantification to obtain the viability matrix. The synergy matrix was calculated as described in Material and Methods. […]
Three DLBCL-derived cell lines were treated with increasing concentrations of Ironomycin combined with Venetoclax for 96 h and cell viability was tested by ATP quantification to obtain the viability matrix. […]

In the next data set the test system is primary DLBCL cells. The following applies: for reduction of the median number of viable primary DLBCL cells: N=5 patients, with CD40L.

Description for primary DLBCL cells: Primary samples of DLBCL patients were cultured with their microenvironment recombinant CD40L in presence or absence of 50 nM and 100 nM of Ironomycin. Percentage of malignant DLBCL cells for each individual patients were analyzed by flow cytometry and expressed in % of control (A). […] The effect of Ironomycin alone or in combination with Doxorubicin on normal CD3+ cells was assessed by flow cytometry (C).
Cells are obtained from lymph nodes or blood of 5 patients with DLBCL. Cells from blood are obtained by density gradient separation and cells from lymph node are obtained with a tissues dissociator and qualified by Flow cytometry.
Cells are cultured in Gibco® Iscove's MDM (Glutamax) medium (#31980-022) with 20% FBS with antibiotitcs-antimicotics (Gibco Penicillin-streptomycin-amphotericin B 100X, #15240-096) at a density of 0.5×10^6 Cell/mL with 50 ng/mL of histidine-tagged CD40L (R&D System, 2706-CL) and 5 μg/mL of anti-histidine antibody R&D System, MAB050), Gibco® pyruvate 100X, #1136-039. Cells are seeded 24H after thawing and treated with various compounds during 72H.
Total cells were counted with trypan bleu and stained with the panel CD45 V500 (BD, #560777), Kappa FITC (Dako, F0434), CD19 PE-Cy7 (BD, #341113), Lambda PE (Dako, R0437), CD3 APC-H7 (BD, #641415), CD10 APC (BD, #332777) and CD20 V450 (BD, #655872) and analyzed by flow cytometry (Canto II cytometer, BD Pharmigen).Tumorous population cells were gated on CD19+, CD45+, CD20+, Kappa or lambda and non-tumorous population cells were gated on CD45+,CD19−, and T cells on CD45+, CD3+, CD19−.

In the case of `C#CCN[C@@H]1C=C[C@]2(O[C@H]([C@@H](CC)C(=O)[C@@H](C)[C@@H](O)[C@H](C)[C@@H]3O[C@@H]([C@@H](CC)C(=O)O)CC[C@@H]3C)[C@@H](C)C[C@H]2C)O[C@@]12CC[C@@](C)([C@H]1CC[C@](O)(CC)[C@H](C)O1)O2` [Ironomycin], the “LC3B II puncta (autophagy)” value with DLBCL cells was “clear increase in LC3B II puncta”. In addition, the “inhibition of induced ROS production by ferrostatin and GSH” value in [1] was “partially inhibited by ferrostin but not by gluthation (GSH)”. In addition, the ROS production result in [1] (CM-H2DCFDA staining) is “induces ROS production”. Also, the IC50 in the data set on DOHH-2 was 91.5 nM; in the data set on SU-DHL-4, 7.2 nM; with WSU-DLCL-2, 30.7 nM; with SU-DHL-6 it was 32.8 nM; in the data set on OCI-LY7, 51.6 nM; with NU-DUL-1 it was 13.7 nM. The IC50 in the data set with OCI-LY1 is 20.3 nM; in the data set with OCI-LY19, 46.9 nM; with RI-1, 30.2 nM; with SU-DHL-10, 36.5 nM; with NU-DHL-1, 50.5 nM. For the same compound, the “potentiation of doxorubicin toxicity (synergy matrix)” value in [2] is on record as “significantly potentialized the toxicity of doxorubicin”. The entries for the “reduction of the median number of viable primary DLBCL cells” value in the data set on primary DLBCL cells (50 nM) and with primary DLBCL cells (100 nM) were 63.1% and 67.1%, respectively. Moreover, the “toxicity in DLBCL cells compared to normal cells from the microenvironment” value in the data set with primary DLBCL cells (primary samples, 50 nM and 100 nM) was “higher toxicity”.

By IC50 is commonly meant the concentration that inhibits the measured activity by half. Higher therefore signals a need for much substance.
